Data: the kinase profiling compilation of Christmann-Franck et al. (2016)

Legend:
Assay in all cases: KINOMEscan competition binding
Details in all cases: compound 10.0 µM
PRKCQ (human) = PRKCQ (human) (UniProt Q04759)
AURKB (human) = AURKB (human) (UniProt Q96GD4)
MAPKAPK5 (human) = MAPKAPK5 (human) (UniProt Q8IW41)
ROCK2 (human) = ROCK2 (human) (UniProt O75116)
CDKL2 (human) = CDKL2 (human) (UniProt Q92772)
GRK1 (human) = GRK1 (human) (UniProt Q15835)
KDR (human) = KDR (human) (UniProt P35968)
[1] = system: RET (human), P07949 [M918T]
PAK6 (human) = PAK6 (human) (UniProt Q9NQU5)
PTK2 (human) = PTK2 (human) (UniProt Q05397)
RIPK2 (human) = RIPK2 (human) (UniProt O43353)
CDK7 (human) = CDK7 (human) (UniProt P50613)
TGFBR2 (human) = TGFBR2 (human) (UniProt P37173)
SIK1 (human) = SIK1 (human) (UniProt P57059)
TYRO3 (human) = TYRO3 (human) (UniProt Q06418)
CDKL1 (human) = CDKL1 (human) (UniProt Q00532)
Sequence of CDKL1 (human) (Q00532 whole entry, looked up): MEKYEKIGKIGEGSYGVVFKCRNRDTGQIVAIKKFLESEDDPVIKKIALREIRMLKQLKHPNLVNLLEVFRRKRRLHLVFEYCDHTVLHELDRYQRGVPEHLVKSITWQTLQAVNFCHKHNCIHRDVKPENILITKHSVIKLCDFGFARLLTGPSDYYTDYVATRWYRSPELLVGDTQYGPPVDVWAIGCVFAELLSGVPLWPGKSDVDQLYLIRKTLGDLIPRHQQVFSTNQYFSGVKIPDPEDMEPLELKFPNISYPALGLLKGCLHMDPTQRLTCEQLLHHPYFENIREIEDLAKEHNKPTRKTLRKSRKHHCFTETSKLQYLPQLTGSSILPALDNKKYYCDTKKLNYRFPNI

PLK3 (human) = PLK3 (human) (UniProt Q9H4B4)
Sequence of PLK3 (human) (Q9H4B4 whole entry, looked up): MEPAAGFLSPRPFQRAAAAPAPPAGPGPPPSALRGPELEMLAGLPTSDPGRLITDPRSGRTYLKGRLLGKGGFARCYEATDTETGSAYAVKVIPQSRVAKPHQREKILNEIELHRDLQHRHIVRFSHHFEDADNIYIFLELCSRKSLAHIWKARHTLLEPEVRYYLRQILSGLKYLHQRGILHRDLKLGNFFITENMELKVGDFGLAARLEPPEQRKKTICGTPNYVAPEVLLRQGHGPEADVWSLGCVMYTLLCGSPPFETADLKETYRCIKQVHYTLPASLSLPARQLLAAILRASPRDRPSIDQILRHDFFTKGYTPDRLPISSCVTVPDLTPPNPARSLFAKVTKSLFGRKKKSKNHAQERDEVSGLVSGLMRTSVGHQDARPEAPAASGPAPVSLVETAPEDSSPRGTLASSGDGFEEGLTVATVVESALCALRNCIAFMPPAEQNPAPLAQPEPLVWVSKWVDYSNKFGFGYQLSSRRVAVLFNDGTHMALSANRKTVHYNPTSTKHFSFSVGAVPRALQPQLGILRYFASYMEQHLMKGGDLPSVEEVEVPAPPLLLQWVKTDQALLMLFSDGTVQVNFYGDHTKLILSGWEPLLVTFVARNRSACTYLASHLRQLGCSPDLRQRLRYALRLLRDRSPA

PRKD2 (human) = PRKD2 (human) (UniProt Q9BZL6)
CAMK1G (human) = CAMK1G (human) (UniProt Q96NX5)
MAP2K1 (human) = MAP2K1 (human) (UniProt Q02750)
Sequence of MAP2K1 (human) (Q02750 whole entry, looked up): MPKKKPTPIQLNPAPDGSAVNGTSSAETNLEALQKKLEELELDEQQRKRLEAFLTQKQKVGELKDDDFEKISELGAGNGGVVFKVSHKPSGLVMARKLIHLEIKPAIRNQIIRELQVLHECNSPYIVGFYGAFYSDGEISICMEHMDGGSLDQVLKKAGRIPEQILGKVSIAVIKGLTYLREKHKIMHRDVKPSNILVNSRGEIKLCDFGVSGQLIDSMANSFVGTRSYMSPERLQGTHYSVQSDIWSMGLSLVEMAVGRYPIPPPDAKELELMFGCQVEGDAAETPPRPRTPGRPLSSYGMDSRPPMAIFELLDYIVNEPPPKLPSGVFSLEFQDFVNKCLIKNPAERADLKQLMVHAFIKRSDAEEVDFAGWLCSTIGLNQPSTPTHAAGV

RPS6KA1 KD2 (human) = RPS6KA1 KD2 (human) (UniProt Q15418)
RPS6KA3 KD1 (human) = RPS6KA3 KD1 (human) (UniProt P51812)
Sequence of RPS6KA3 KD1 (human) (P51812 whole entry, looked up): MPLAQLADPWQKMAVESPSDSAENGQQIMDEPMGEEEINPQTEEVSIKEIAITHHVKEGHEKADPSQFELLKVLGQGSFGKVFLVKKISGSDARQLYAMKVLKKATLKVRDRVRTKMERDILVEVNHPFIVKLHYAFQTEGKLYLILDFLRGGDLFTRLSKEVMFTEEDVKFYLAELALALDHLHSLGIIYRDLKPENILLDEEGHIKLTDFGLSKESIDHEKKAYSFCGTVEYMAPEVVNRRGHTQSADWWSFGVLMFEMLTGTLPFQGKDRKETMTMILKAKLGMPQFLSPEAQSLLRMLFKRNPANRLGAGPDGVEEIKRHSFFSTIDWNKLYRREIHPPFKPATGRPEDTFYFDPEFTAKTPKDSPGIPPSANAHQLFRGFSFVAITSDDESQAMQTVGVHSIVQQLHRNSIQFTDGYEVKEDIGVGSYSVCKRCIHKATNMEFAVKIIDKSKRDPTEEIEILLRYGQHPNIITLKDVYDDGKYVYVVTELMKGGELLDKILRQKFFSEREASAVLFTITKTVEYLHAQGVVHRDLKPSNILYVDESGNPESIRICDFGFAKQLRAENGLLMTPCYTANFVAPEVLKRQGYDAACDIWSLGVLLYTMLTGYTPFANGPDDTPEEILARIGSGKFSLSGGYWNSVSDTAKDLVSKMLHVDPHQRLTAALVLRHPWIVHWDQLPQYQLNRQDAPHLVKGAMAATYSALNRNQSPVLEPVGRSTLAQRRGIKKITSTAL

BMPR1A (human) = BMPR1A (human) (UniProt P36894)
Sequence of BMPR1A (human) (P36894 whole entry, looked up): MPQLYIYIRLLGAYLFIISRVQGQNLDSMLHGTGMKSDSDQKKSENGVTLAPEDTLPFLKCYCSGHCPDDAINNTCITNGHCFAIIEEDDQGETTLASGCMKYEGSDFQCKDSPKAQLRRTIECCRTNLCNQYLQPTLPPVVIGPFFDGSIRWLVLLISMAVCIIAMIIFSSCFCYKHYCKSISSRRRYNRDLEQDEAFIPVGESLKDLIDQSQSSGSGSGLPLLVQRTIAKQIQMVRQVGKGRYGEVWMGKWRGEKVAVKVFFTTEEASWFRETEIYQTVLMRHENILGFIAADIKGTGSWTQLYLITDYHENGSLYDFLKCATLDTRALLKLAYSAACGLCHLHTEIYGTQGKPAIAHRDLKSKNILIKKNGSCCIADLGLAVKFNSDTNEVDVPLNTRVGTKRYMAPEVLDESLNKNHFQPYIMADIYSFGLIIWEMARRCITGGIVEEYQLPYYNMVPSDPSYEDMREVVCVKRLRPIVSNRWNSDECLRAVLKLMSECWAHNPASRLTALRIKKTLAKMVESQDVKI

PRKACB (human) = PRKACB (human) (UniProt P22694)
ACVR1 (human) = ACVR1 (human) (UniProt Q04771)
ACVR2A (human) = ACVR2A (human) (UniProt P27037)
[2] = system: PIK3CA (human), P42336 [E545A]
RPS6KA6 KD1 (human) = RPS6KA6 KD1 (human) (UniProt Q9UK32)
MAP3K5 (human) = MAP3K5 (human) (UniProt Q99683)
CLK2 (human) = CLK2 (human) (UniProt P49760)
MAP2K3 (human) = MAP2K3 (human) (UniProt P46734)
MAP3K4 (human) = MAP3K4 (human) (UniProt Q9Y6R4)
AAK1 (human) = AAK1 (human) (UniProt Q2M2I8)
CSNK1G2 (human) = CSNK1G2 (human) (UniProt P78368)
Sequence of CSNK1G2 (human) (P78368 whole entry, looked up): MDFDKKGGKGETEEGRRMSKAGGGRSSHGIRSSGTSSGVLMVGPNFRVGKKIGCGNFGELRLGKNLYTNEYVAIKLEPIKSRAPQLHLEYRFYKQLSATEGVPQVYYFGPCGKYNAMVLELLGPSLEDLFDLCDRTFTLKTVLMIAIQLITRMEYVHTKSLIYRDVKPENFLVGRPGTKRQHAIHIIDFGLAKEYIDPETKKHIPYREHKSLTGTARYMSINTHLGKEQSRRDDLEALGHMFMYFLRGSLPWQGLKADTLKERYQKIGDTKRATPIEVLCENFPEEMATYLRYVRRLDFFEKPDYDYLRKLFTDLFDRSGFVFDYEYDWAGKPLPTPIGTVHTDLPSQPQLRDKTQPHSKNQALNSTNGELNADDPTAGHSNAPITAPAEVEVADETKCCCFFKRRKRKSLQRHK

STK3 (human) = STK3 (human) (UniProt Q13188)
VRK2 (human) = VRK2 (human) (UniProt Q86Y07)
FYN (human) = FYN (human) (UniProt P06241)
Sequence of FYN (human) (P06241 whole entry, looked up): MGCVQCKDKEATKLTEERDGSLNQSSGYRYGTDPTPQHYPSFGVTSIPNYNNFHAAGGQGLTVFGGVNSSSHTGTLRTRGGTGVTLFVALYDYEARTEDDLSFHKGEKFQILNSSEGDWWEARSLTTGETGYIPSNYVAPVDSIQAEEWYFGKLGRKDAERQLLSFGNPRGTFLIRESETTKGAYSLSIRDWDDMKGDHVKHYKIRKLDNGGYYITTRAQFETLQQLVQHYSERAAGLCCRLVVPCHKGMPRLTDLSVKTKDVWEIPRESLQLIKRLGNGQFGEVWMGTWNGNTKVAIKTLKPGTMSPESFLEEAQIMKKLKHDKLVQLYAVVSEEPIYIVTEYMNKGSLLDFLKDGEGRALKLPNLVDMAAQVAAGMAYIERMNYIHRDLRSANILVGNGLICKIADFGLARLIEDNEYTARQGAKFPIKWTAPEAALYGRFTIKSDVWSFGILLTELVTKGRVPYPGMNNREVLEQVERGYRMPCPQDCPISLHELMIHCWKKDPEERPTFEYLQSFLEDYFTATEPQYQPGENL

MAPK12 (human) = MAPK12 (human) (UniProt P53778)
[3] = system: KIT (human), P10721 [D816H]
[4] = system: FLT3 (human), P36888 [R834Q]
[5] = system: KIT (human), P10721 [D816V]

Sequence of GRK1 (human) (Q15835 whole entry, looked up): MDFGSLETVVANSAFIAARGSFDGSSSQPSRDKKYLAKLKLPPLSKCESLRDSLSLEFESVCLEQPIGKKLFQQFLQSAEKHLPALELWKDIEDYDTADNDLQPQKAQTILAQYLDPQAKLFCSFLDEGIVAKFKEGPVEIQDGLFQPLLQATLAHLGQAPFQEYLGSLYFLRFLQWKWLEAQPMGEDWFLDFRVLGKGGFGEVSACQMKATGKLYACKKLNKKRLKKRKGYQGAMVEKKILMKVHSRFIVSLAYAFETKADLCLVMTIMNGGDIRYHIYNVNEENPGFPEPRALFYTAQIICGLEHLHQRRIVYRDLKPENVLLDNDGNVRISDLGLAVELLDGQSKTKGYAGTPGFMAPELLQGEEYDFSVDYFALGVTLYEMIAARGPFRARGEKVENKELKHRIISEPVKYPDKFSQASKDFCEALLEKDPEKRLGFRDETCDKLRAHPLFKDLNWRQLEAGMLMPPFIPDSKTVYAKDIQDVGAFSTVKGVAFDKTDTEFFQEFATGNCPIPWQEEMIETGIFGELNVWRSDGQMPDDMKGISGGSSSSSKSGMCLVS
Sequence of PRKCQ (human) (Q04759 whole entry, looked up): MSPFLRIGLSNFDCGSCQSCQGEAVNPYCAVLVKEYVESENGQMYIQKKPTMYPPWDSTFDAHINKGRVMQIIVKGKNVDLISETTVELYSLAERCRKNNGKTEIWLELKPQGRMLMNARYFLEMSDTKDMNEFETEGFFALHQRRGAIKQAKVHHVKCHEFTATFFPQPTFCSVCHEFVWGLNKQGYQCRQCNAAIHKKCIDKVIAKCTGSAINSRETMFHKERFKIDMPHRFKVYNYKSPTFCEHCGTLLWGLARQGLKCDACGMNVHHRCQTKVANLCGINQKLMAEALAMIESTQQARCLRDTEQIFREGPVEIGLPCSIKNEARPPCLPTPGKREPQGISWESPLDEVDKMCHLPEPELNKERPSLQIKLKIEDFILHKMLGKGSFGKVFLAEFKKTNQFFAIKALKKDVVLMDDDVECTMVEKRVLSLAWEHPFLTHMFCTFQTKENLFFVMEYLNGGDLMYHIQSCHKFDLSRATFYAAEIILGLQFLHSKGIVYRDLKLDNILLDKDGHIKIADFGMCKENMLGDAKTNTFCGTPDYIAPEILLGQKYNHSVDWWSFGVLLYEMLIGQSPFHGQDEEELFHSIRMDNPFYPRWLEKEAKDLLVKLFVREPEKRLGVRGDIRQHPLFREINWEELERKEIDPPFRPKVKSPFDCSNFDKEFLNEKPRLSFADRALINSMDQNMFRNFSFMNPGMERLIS

`CCC(=O)N1CCN(c2ccc(-n3c(=O)ccc4cnc5ccc(-c6cnc7ccccc7c6)cc5c43)cc2C(F)(F)F)CC1` was tested, and the kinase still bound, per cent of control (PRKCQ (human)) was 91%, the kinase still bound, per cent of control (AURKB (human)) was 82% and the kinase still bound, per cent of control (MAPKAPK5 (human)) was 100%. It also gave a kinase still bound, per cent of control (ROCK2 (human)) of 50%, a per cent of control (CDKL2 (human)) of 58% and a kinase still bound, per cent of control (GRK1 (human)) of 99%. It also gave a kinase still bound, per cent of control (KDR (human)) of 65%, a kinase still bound, per cent of control [1] of 51% and a kinase still bound, per cent of control (PAK6 (human)) of 77%. It also gave a kinase still bound, per cent of control (PTK2 (human)) of 14%, a kinase still bound, per cent of control (RIPK2 (human)) of 44% and a per cent of control (CDK7 (human)) of 57%. It also gave a kinase still bound, per cent of control (TGFBR2 (human)) of 77%, a kinase still bound, per cent of control (SIK1 (human)) of 80% and a kinase still bound, per cent of control (TYRO3 (human)) of 31%. The per cent of control (CDKL1 (human)) was 100%, the kinase still bound, per cent of control (PLK3 (human)) was 87% and the kinase still bound, per cent of control (PRKD2 (human)) was 100%. The kinase still bound, per cent of control (CAMK1G (human)) was 74%, the kinase still bound, per cent of control (MAP2K1 (human)) was 100% and the kinase still bound, per cent of control (RPS6KA1 KD2 (human)) was 100%. It also gave a kinase still bound, per cent of control (RPS6KA3 KD1 (human)) of 38%, a kinase still bound, per cent of control (BMPR1A (human)) of 45% and a per cent of control (PRKACB (human)) of 100%. The kinase still bound, per cent of control (ACVR1 (human)) was 28%, the kinase still bound, per cent of control (ACVR2A (human)) was 47% and the kinase still bound, per cent of control [2] was 1%. It also gave a kinase still bound, per cent of control (RPS6KA6 KD1 (human)) of 66%, a kinase still bound, per cent of control (MAP3K5 (human)) of 100% and a kinase still bound, per cent of control (CLK2 (human)) of 65%. The kinase still bound, per cent of control (MAP2K3 (human)) was 80%, the kinase still bound, per cent of control (MAP3K4 (human)) was 47% and the kinase still bound, per cent of control (AAK1 (human)) was 75%. It also gave a kinase still bound, per cent of control (CSNK1G2 (human)) of 100%, a kinase still bound, per cent of control (STK3 (human)) of 24% and a kinase still bound, per cent of control (VRK2 (human)) of 100%. It also gave a kinase still bound, per cent of control (FYN (human)) of 49% and a kinase still bound, per cent of control (MAPK12 (human)) of 71%.

In the case of `COC(=O)Nc1ccc(-c2nc(N3CCOCC3)c3cnn(C4CCN(C(=O)OC)CC4)c3n2)cc1`, the kinase still bound, per cent of control (PRKCQ (human)) is reported as 99%, the kinase still bound, per cent of control (AURKB (human)) is reported as 100% and the kinase still bound, per cent of control (MAPKAPK5 (human)) is reported as 100%. It also gave a kinase still bound, per cent of control (ROCK2 (human)) of 79%, a kinase still bound, per cent of control [3] of 75% and a per cent of control (CDKL2 (human)) of 94%. It also gave a kinase still bound, per cent of control (GRK1 (human)) of 100%, a kinase still bound, per cent of control [4] of 76% and a kinase still bound, per cent of control (KDR (human)) of 100%. It also gave a kinase still bound, per cent of control [5] of 100%, a kinase still bound, per cent of control [1] of 87% and a kinase still bound, per cent of control (PAK6 (human)) of 100%. For the same compound, the kinase still bound, per cent of control (PTK2 (human)) was 94%, the kinase still bound, per cent of control (RIPK2 (human)) was 65% and the per cent of control (CDK7 (human)) was 67%. The kinase still bound, per cent of control (TGFBR2 (human)) was 78%, the kinase still bound, per cent of control (SIK1 (human)) was 100% and the kinase still bound, per cent of control (TYRO3 (human)) was 100%. The per cent of control (CDKL1 (human)) was 91%, the kinase still bound, per cent of control (PLK3 (human)) was 93% and the kinase still bound, per cent of control (PRKD2 (human)) was 100%. The kinase still bound, per cent of control (CAMK1G (human)) was 92%, the kinase still bound, per cent of control (MAP2K1 (human)) was 100% and the kinase still bound, per cent of control (RPS6KA1 KD2 (human)) was 100%. It also gave a kinase still bound, per cent of control (RPS6KA3 KD1 (human)) of 76%, a kinase still bound, per cent of control (BMPR1A (human)) of 100% and a per cent of control (PRKACB (human)) of 97%. The kinase still bound, per cent of control (ACVR1 (human)) was 100%, the kinase still bound, per cent of control (ACVR2A (human)) was 100% and the kinase still bound, per cent of control [2] was 5.5%. For the same compound, the kinase still bound, per cent of control (RPS6KA6 KD1 (human)) was 86%, the kinase still bound, per cent of control (MAP3K5 (human)) was 100% and the kinase still bound, per cent of control (CLK2 (human)) was 57%. For the same compound, the kinase still bound, per cent of control (MAP2K3 (human)) was 95%, the kinase still bound, per cent of control (MAP3K4 (human)) was 100% and the kinase still bound, per cent of control (AAK1 (human)) was 86%. It also gave a kinase still bound, per cent of control (CSNK1G2 (human)) of 98%, a kinase still bound, per cent of control (STK3 (human)) of 85% and a kinase still bound, per cent of control (VRK2 (human)) of 100%. The kinase still bound, per cent of control (FYN (human)) was 99% and the kinase still bound, per cent of control (MAPK12 (human)) was 0%.

Work on `CC(C)n1nc(-c2cc3cc(O)ccc3[nH]2)c2c(N)ncnc21` yielded a kinase still bound, per cent of control (PRKCQ (human)) of 58%, a kinase still bound, per cent of control (AURKB (human)) of 85% and a kinase still bound, per cent of control (MAPKAPK5 (human)) of 86%. For the same compound, the kinase still bound, per cent of control (ROCK2 (human)) was 60%, the kinase still bound, per cent of control [3] was 16% and the per cent of control (CDKL2 (human)) was 75%. For the same compound, the kinase still bound, per cent of control (GRK1 (human)) was 16%, the kinase still bound, per cent of control [4] was 16% and the kinase still bound, per cent of control [5] was 2.5%. For the same compound, the kinase still bound, per cent of control [1] was 0%, the kinase still bound, per cent of control (PAK6 (human)) was 23% and the kinase still bound, per cent of control (PTK2 (human)) was 100%. It also gave a kinase still bound, per cent of control (RIPK2 (human)) of 0.8%, a per cent of control (CDK7 (human)) of 30% and a kinase still bound, per cent of control (TGFBR2 (human)) of 2.8%. The kinase still bound, per cent of control (SIK1 (human)) was 13%, the kinase still bound, per cent of control (TYRO3 (human)) was 77% and the per cent of control (CDKL1 (human)) was 100%. It also gave a kinase still bound, per cent of control (PLK3 (human)) of 33%, a kinase still bound, per cent of control (PRKD2 (human)) of 100% and a kinase still bound, per cent of control (CAMK1G (human)) of 77%. The kinase still bound, per cent of control (MAP2K1 (human)) was 0.25%, the kinase still bound, per cent of control (RPS6KA1 KD2 (human)) was 46% and the kinase still bound, per cent of control (RPS6KA3 KD1 (human)) was 0.35%. It also gave a kinase still bound, per cent of control (BMPR1A (human)) of 2.8%, a per cent of control (PRKACB (human)) of 65% and a kinase still bound, per cent of control (ACVR1 (human)) of 0.1%. For the same compound, the kinase still bound, per cent of control (ACVR2A (human)) was 0.5%, the kinase still bound, per cent of control (RPS6KA6 KD1 (human)) was 4.6% and the kinase still bound, per cent of control (MAP3K5 (human)) was 100%. For the same compound, the kinase still bound, per cent of control (CLK2 (human)) was 9.7%, the kinase still bound, per cent of control (MAP2K3 (human)) was 1.7% and the kinase still bound, per cent of control (MAP3K4 (human)) was 85%. The kinase still bound, per cent of control (AAK1 (human)) was 31%, the kinase still bound, per cent of control (VRK2 (human)) was 100% and the kinase still bound, per cent of control (FYN (human)) was 4.6%. For the same compound, the kinase still bound, per cent of control (MAPK12 (human)) was 59%.

With `COc1ccc(-c2ccc3c(N4CCOCC4)nc(N4C[C@@H](C)O[C@@H](C)C4)nc3n2)cc1CO` the kinase still bound, per cent of control (PRKCQ (human)) was 100%, the kinase still bound, per cent of control (AURKB (human)) was 73% and the kinase still bound, per cent of control (MAPKAPK5 (human)) was 77%. The kinase still bound, per cent of control (ROCK2 (human)) was 21%, the kinase still bound, per cent of control [3] was 100% and the per cent of control (CDKL2 (human)) was 95%. It also gave a kinase still bound, per cent of control (GRK1 (human)) of 98%, a kinase still bound, per cent of control [4] of 100% and a kinase still bound, per cent of control (KDR (human)) of 98%. The kinase still bound, per cent of control [5] was 94%, the kinase still bound, per cent of control [1] was 100% and the kinase still bound, per cent of control (PAK6 (human)) was 90%. It also gave a kinase still bound, per cent of control (PTK2 (human)) of 95%, a kinase still bound, per cent of control (RIPK2 (human)) of 100% and a per cent of control (CDK7 (human)) of 73%. The kinase still bound, per cent of control (TGFBR2 (human)) was 92%, the kinase still bound, per cent of control (SIK1 (human)) was 90% and the kinase still bound, per cent of control (TYRO3 (human)) was 100%. The per cent of control (CDKL1 (human)) was 100%, the kinase still bound, per cent of control (PLK3 (human)) was 92% and the kinase still bound, per cent of control (PRKD2 (human)) was 96%. The kinase still bound, per cent of control (CAMK1G (human)) was 94%, the kinase still bound, per cent of control (MAP2K1 (human)) was 100% and the kinase still bound, per cent of control (RPS6KA1 KD2 (human)) was 100%. It also gave a kinase still bound, per cent of control (RPS6KA3 KD1 (human)) of 99%, a kinase still bound, per cent of control (BMPR1A (human)) of 70% and a per cent of control (PRKACB (human)) of 96%. The kinase still bound, per cent of control (ACVR1 (human)) was 100%, the kinase still bound, per cent of control (ACVR2A (human)) was 100% and the kinase still bound, per cent of control [2] was 2.4%. The kinase still bound, per cent of control (RPS6KA6 KD1 (human)) was 76%, the kinase still bound, per cent of control (MAP3K5 (human)) was 97% and the kinase still bound, per cent of control (CLK2 (human)) was 64%. It also gave a kinase still bound, per cent of control (MAP2K3 (human)) of 94%, a kinase still bound, per cent of control (MAP3K4 (human)) of 100% and a kinase still bound, per cent of control (AAK1 (human)) of 93%. It also gave a kinase still bound, per cent of control (CSNK1G2 (human)) of 100%, a kinase still bound, per cent of control (STK3 (human)) of 85% and a kinase still bound, per cent of control (VRK2 (human)) of 87%. It also gave a kinase still bound, per cent of control (FYN (human)) of 96% and a kinase still bound, per cent of control (MAPK12 (human)) of 100%.
